Values joined by “and” are separate entries in the source; they are usually repeats but may differ in a detail not shown here. Identical values can stand only once. Starred links: 1 amine or outer side, 2 acyl side, 3 side chain; linkers in the order of their positions; H or OH if unused. Positions of bridges follow the written chain, without caps; N, C: chain ends. Non-standard residues stand in square brackets, D forms with d. Residues, ends and D or L forms follow the SMILES beside them. Chains are numbered I, II in the order given. *: point of attachment. isoGln = NC(=O)[C@H](CCC(=O)[*:2])N[*:1]; εLys = N[C@@H](CCCCN[*:1])C(=O)[*:2]; Dab = NCC[C@H](N)C(=O)O; PhAc = O=C(Cc1ccccc1)*
Columns and labels:
vasopressin V1a receptor = experiment: Pharmacodynamics (blood pressure, MAP, pulse rate, peripheral blood flow, cardiac output, urine volume) in healthy subjects; assay type: in vivo, human
Description: In some embodiments, MAP is calculated from measurements of systolic blood pressure and diastolic blood pressure. In some embodiments, MAP is calculated when taking into account the pressure during a single cardiac cycle. In some embodiments, MAP is ⅓ (systolic blood pressure−diastolic blood pressure)+diastolic blood pressure.
In some instances, endpoints of the study were: vital signs (e.g., supine blood pressure, pulse, and body temperature), electrocardiogram (ECG) (e.g., intervals, rhythm, and morphology), cardiac function (e.g., cardiac output using echocardiography), peripheral blood flow/tissue perfusion (e.g., by skin color), venous blood gases (e.g., lactate), urinary output, clinical chemistry, hematology, hemostasis, and urinalysis, adverse events (AEs) (e.g., type, frequency, and intensity), pharmacokinetics (e.g., AUC, AUCt, AUCτ, % Extrap AUC, Cmax, tmax, CL, Vz, t1/2, MRT, Vss, F, Ae, and CLR), and metabolite pattern in plasma and urine.

[1] = Effect of buffer concentration on bioavailability and M1 formation after SC (bolus) injection in rats; assay type: in vivo, rat; settings: s.c. (bolus)
skin blood flow (SBF) = experiment: Skin blood flow (SBF), laser Doppler, anesthetized Wistar rats, IV infusion; assay type: in vivo, rat
Description: This study was performed over multiple experiments using a total of 48 adult male Wistar rats. […] Compounds were infused via an IV catheter at six sequentially increasing doses.
On the day of experimentation animals were anesthetized and instrumented. A tracheostomy was performed to allow assisted respiration and three catheters were placed. Laser Doppler probes were positioned on a shaved portion of the animal's lower abdominal skin for blood-flow measurements. Ventilation was initiated, and baseline readings for the primary parameter of skin blood flow (SBF) were recorded. Readings for the secondary parameters were also recorded: (1) blood lactate concentration, (2) mean arterial pressure (MAP), and (3) blood pH. Data collection was performed continuously for SBF and MAP using NOTOCORD-hem™ (Instem), and blood samples were taken at each compound dose and immediately analyzed using an i-STAT® meter.
After the final dose administration, animals were euthanized and a final SBF measurement was recorded to detect any signal from the flow probe after the animal's heart stopped beating to control for a signal not attributed to blood flow. Animal body temperature, pulse, and ventilation adequacy were monitored throughout the procedure.

[2] = Safety and tolerability in healthy rats; assay type: in vivo, rat
Description: Rat models were used as a model to assess PK/PD of Compound 1.
Four adult male Sprague Dawley rats were catheterized via the carotid artery (for blood collection). […] Blood samples were collected at nominal times of 5, 10, 20, 40, 60, 90, 120, 180, 240, and 300 min after administration using an automated blood sampling system as described above. Plasma was prepared from whole blood using K2EDTA as anticoagulant. Subsequent bioanalysis of samples included compound extraction and plasma concentration determination using standard LC/MS methods.
The study was performed using six adult male Sprague Dawley rats, aged ~11 weeks. The pressure catheter was a polyurethane tubing that extended out of the device body and was inserted into the lower abdominal aorta. A postoperative injection of analgesia (flunixin, 5 mg per animal; Finadyne®, Schering-Plough) was given once immediately after implantation, and once at an interval of 24 h. The surgical wounds were disinfected with povidone iodine (Vétédine®, Vetoquinol SA) for 4 consecutive days. After surgery, the animals recovered for ~2 weeks before first study administration (day 0).
On the days of administration, animals were examined before and immediately after administration, and at least once after dosing (after the ≥4-h analysis time point) to detect any clinical signs or reaction to administration. A full clinical examination was performed weekly.

[3] = tested on: bile duct ligation (BDL) and ascites rat model; experiment: Bile duct ligation (BDL) and ascites rats, SC b.i.d. 5 days; assay type: in vivo; settings: for Animal Body Weight: 99.5 μg FB/kg SC b.i.d.
Description: Animals: Male Sprague Dawley rats weighing 300-400 grams with bile duct ligations (BDL) performed at 7 weeks of age by the vendor (Harlan, IN). BDL rats were administered 50 μg of vitamin K1 at the time of BDL surgery, prior to shipment, and then once weekly to reduce potential mortality from hemorrhagic complications.
The working solution was stored at 4° C. over the course of the study and warmed to room temperature for 30 minutes before administration.
Animals were weighed daily. […] Each metabolic cage was set up for continuous measurement of spontaneous urine output via force transducers placed […] the urine collection vials to monitor and record the time course of urine output. Data from the calibrated force transducers every time the rats void. […] Only 16 metabolic cages could be used, urine, water, and food intake data were not collected for one animal in the vehicle group. Animals were returned to their home cages for the remainder of the study and were sacrificed before the second treatment on the fifth day. Blood samples were collected from each animal via cardio puncture. Laparotomies were performed and ascites fluid collected and volume measured by pipet. Spleens were dissected from each animal, any excessive fat or connective tissue was removed and the spleens were weighted.

CC[C@H](C)[C@@H]1NC(=O)[C@H](Cc2ccccc2)NC(=O)[C@@H](N)CSSC[C@@H](C(=O)N2CCC[C@H]2C(=O)N[C@@H](CCNC(=O)[C@@H](N)CCCCNC(=O)[C@H](CCCCNC(C)=O)NC(=O)CC[C@H](NC(=O)[C@H](CCCNC(=N)N)NC(=O)[C@@H]2CCCN2C(=O)[C@H](C)NC(=O)[C@H](CC(N)=O)NC(=O)[C@H](CCC(N)=O)NC(=O)[C@H](Cc2ccccc2)NC(=O)[C@@H](Cc2ccc(OC)cc2)NC(=O)Cc2ccccc2)C(N)=O)C(=O)NCC(N)=O)NC(=O)[C@H](CC(N)=O)NC(=O)[C@H](CCC(N)=O)NC1=O [Compound 1, Glycinamide, L-cysteinyl-L-phenylalanyl-L-isoleucyl-L-glutaminyl-L-asparaginyl-L-cysteinyl-L-prolyl-N4-(phenylacetyl-O-methyl-D-tyrosyl-L-phenylalanyl-L-glutaminyl-L-asparaginyl-L-alanyl-L-prolyl-L-arginyl-L-isoglutamyl-N5-acetyl-L-lysyl-L-ε-lysyl)-L-2,4-diaminobutyryl-, cyclic (1→6)-disulfide] (I: H-CFIQNCP[Dab]G-NH2 / II: PhAc-[dY](Me)FQNAPR[isoGln]K(Ac)[εLys]; disulfide I:1-I:6; amide I:8-II:C)
reduction in cardiac output, mean (vasopressin V1a receptor; 0.9 mg i.v., echocardiography): 3%-12 | individual decreases in cardiac output (vasopressin V1a receptor; any dose, i.v. and s.c., echocardiography): 20-25% | AE of moderate decreased cardiac output (vasopressin V1a receptor; i.v. 0.1 mg): One | subjects with hyperemia (vasopressin V1a receptor; i.v. 0.45 mg, 30 and 90 minutes): 1 subject | urinary volume (vasopressin V1a receptor; i.v. and s.c.): no apparent dose related trends or changes | cardiac output versus placebo (vasopressin V1a receptor; i.v., except 0.1 mg group): decreased | subjects with pallor (vasopressin V1a receptor; i.v., mainly 0.45, 0.6 and 0.9 mg): 18 subjects | cardiac output (vasopressin V1a receptor; s.c. 0.1 and 0.3 mg): slight reduction | subjects with pallor (vasopressin V1a receptor; s.c. 0.1 and 0.3 mg, after 1st dose): About 30% | bioavailability ([1]; about 10 mM buffer): about 13% | bioavailability ([1]; about 100 mM buffer): about 37% | SBF ED50 (skin blood flow (SBF)): 25.2 pmol/kg/min | SBF Emax (skin blood flow (SBF)): 38.6% | greatest percent change from baseline in skin flow (skin blood flow (SBF)): −42.1% | animals with local reaction at injection site ([2]; SC 4 and 20 mg/kg): three of the six | tolerability ([2]; SC bolus): well tolerated | bodyweight gain ([2]; SC, four administrations up to 20 mg/kg): did not influence bodyweight gain | deaths ([2]; SC, up to 20 mg/kg): no deaths occurred | tolerability ([2]; single SC, conscious rats, all tested dose levels): well tolerated at all tested dose levels | tolerability ([2]; single-dose IV bolus (cassette)): well tolerated | Animal Body Weight ([3]; day 1): 362.4 g | Animal Body Weight ([3]; day 2): 330.2 g | Animal Body Weight ([3]; day 3): 324.6 g | Animal Body Weight ([3]; day 4): 329.0 g | Animal Body Weight ([3]; day 5): 329.8 ± 2.9 g and 329.8 g | Urine Volume ([3]; 5-24 hr): 31.2 mL | Urine Volume, Δ versus vehicle ([3]; 5-24 hr): 46% | Urine creatinine content ([3]; 5-24 hr): 9.5 mg | Urine creatinine content, Δ versus vehicle ([3]; 5-24 hr): −32% | Urine potassium content ([3]; 5-24 hr): 0.8 mEq | Urine potassium content, Δ versus vehicle ([3]; 5-24 hr): −60% | Urine sodium content ([3]; 5-24 hr): 1.1 mEq | Urine sodium content, Δ versus vehicle ([3]; 5-24 hr): 85% | Urine Volume ([3]; 4 hr): 9.8 mL | Urine Volume, Δ versus vehicle ([3]; 4 hr): 367% | Urine creatinine content ([3]; 4 hr): 2.7 mg | Urine creatinine content, Δ versus vehicle ([3]; 4 hr): 8% | Urine potassium content ([3]; 4 hr): 1.1 mEq | Urine potassium content, Δ versus vehicle ([3]; 4 hr): 394% | Urine sodium content ([3]; 4 hr): 2.6 mEq | Urine sodium content, Δ versus vehicle ([3]; 4 hr): 2342% | Net Fluid Balance ([3]; 24 hours (vehicle 10.0)): -24.3 mL | Urine Volume ([3]; 24 hr): 41.0 ± 4.3 mL and 41.0 mL | decrease in mean body weight ([3]; between day 1 and 2): 32.2 g | further decrease in mean body weight ([3]; between days 2 and 3): 5.6 g | BUN ([3]; day 5): 34 mg/dL | BUN, Δ versus vehicle ([3]; day 5): 64% | Cl ([3]; day 5): 100 mEq/L | Cl, Δ versus vehicle ([3]; day 5): −3% | Creatinine (blood) ([3]; day 5): 0.3 mg/dL | Na (blood) ([3]; day 5): 139 mEq/L | Na (blood), Δ versus vehicle ([3]; day 5): −1% | PHOS ([3]; day 5): 5.1 mg/dL | PHOS, Δ versus vehicle ([3]; day 5): −21% | difference in final body weight versus vehicle ([3]; day 5): 39.8 g | Spleen Weight ([3]; day 5 (vehicle 2.7)): 2.3 g | Ascites Volume ([3]; day 5 (vehicle 19.8)): 3.8 ± 1.8 mL and 3.8 mL | hyponatremia ([3]; repeat administration over 5 days): failed to provide hyponatremia
